Consider 61 molecules from a melting point compilation (Tetko et al.; mined from patent text by program, amines drawn as free bases though some values may be those of a salt).

The melting point is the temperature of the solid-liquid transition. Molecule `CCOP(OCC)c1ccccc1P(c1cccc2ccccc12)c1cccc2ccccc12` had a melting point of 94 to 95 °C.
Molecule `CS(=O)(=O)N(Cc1cccnc1)c1ccc(C#N)cc1` returned a melting point of 73 to 75 °C.
As to `Cc1cc(C)cc(C(=O)N2CCC(N3CCC(C(=O)O)(c4ccccc4)CC3)CC2Cc2ccccc2)c1` (stereo unspecified), the melting point turned out to be 259 °C.
Consider `CCOC(=O)c1ccc(NCCc2cccc3ccccc23)cc1`, for which the melting point fell in the range of 104 to 106 °C.
For `C=CCn1c(C)nc2c1CC(C(=O)OCC)CC2=O` (stereo unspecified) the value was 95 to 97 °C.
In the case of `Cc1cc(N(C)[C@H]2CN(C(=O)CC#N)CC[C@H]2C)n2ncnc2n1`, the melting point is 119 °C.
For `CCOC(=O)c1oc(-c2ccccc2)cc(=O)c1Br` the value was 135 °C; for `C=C(Sc1ccc(C(C)(C)C)cc1)S(=O)(=O)c1ccc(Cl)cc1`, 74 to 79 °C; for `COc1cc2c(c(-c3cccc(Cl)c3Cl)c1)OC(CN)C2` (stereo unspecified), 159 to 161 °C.
Molecule `CCOC(=O)c1c(C(F)(F)F)nc(C(F)F)c(C(=O)OC)c1OC(C)C` displayed a melting point of 29 to 31 °C.
In turn, `CCCC12C3=CCC4CC(OC(C)=O)CCC4(C)C3CCC1(C)C(C(C)CCCC(C)C)CC2O` (stereo unspecified) showed a melting point of 104 °C.
In the case of `O=C(NC(=Cc1ccccc1)c1ccccc1)C(F)(F)F`, the melting point was in the range of 148 to 150 °C.
`CN1C(=O)C(=C(Nc2ccc(-c3cn(C)cn3)cc2)c2ccc(CN)cc2)c2ccccc21` gave a melting point above 300 °C.
In the case of `CS(=O)(=O)c1ccc(-c2cc(Br)sc2-c2ccc(F)cc2)cc1`, the melting point fell in the range of 122 to 124 °C.
`Cc1ccc(N2C(=O)C(O)=C(C(=O)c3ccc(C(C)C)cc3)C2c2ccc(Cn3nccn3)cc2)nn1` (stereo unspecified) came in with a melting point of 285 °C.
`CCc1cn(C2CC(O)C(CNC(=O)C(C)Oc3ccc(Cl)cc3Cl)O2)c(=O)[nH]c1=O` (mixture of isomers): the melting point lay within 240 to 243 °C.
In turn, `CS(=O)(=O)C(=C1CN(C(c2ccccc2)c2ccccc2)C1)c1cccc(Br)c1` came in with a melting point of 200 °C.
Molecule `COc1cccc2nc(-c3ccc(C)cc3)cc(OCC(=O)N3CCOCC3)c12` yielded a melting point of 132 °C.
For `CN1CCN(CCCCCNc2ncc3cc(-c4c(Cl)cccc4Cl)c(=O)n(C)c3n2)CC1` the value was 110 to 112 °C.
For `CC(C)c1cc(OCCOCc2ccccc2)cc2c1C(=O)N(CCl)S2(=O)=O` the value was 101 to 102 °C; for `CC(C)CC(NC(=O)C(Cc1c[nH]cn1)NC(=O)C(CC(=O)NCCc1ccccc1)Cc1cccc2ccccc12)C(O)CO` (mixture of isomers), 101 to 107 °C.
For `C=C(Br)C(=O)Nc1ccccc1` the value was 90.5 to 92.5 °C.
Regarding `CC(c1ccco1)N(O)C(N)=O` (stereo unspecified), the melting point is 143 to 144 °C.
In turn, `CN(C)C(=O)NC(=CC(=O)Nc1cc(F)c(C#N)cc1F)C(F)(F)F` came in with a melting point of 138 °C.
As for `CCCCN(Cc1ccc(-c2ccccc2S(=O)(=O)NC(=O)c2ccccc2Cl)cc1)C(=O)N(C)c1ccccc1C(F)(F)F`, the melting point was above 60 °C.
`C#CCN(Cc1cc2c(=O)n(C)c(CN3CCOCC3)nc2cc1Cl)c1ccc(C(=O)OC(C)(C)C)cc1`: the melting point is 140 to 143 °C.
Molecule `CN1CC[C@@H](c2c(O)cc(O)c3c(=O)cc(-c4cccnc4Cl)oc23)[C@@H]1CO` returned a melting point of 125 to 127 °C.
For the molecule `CCCCCCCCCCCCCCCCOC(=O)NCCN1CCCCC1`, the melting point was found to be 48 °C.
Regarding `Clc1ccc(C(Cl)Cl)c(C(Cl)Cl)c1`, the melting point fell in the range of 63 to 64 °C.
In turn, `O=[N+]([O-])c1cc(Cl)cc2cccnc12` yielded a melting point of 149 to 155 °C.
For `Cc1c(Br)sc2cc(C(=O)CBr)ccc12`, the melting point lay in the range of 126 to 128 °C.
The molecule `CC(=O)OC1CSC(Oc2cncc(-c3cc4ccccc4s3)c2)C(OC(C)=O)C1OC(C)=O` (stereo unspecified) came in with a melting point of 168 °C.
For `CN(C)CCN/C(=C1/Sc2ccccc2C1=O)c1ccccc1` the value was 123 to 125 °C.
Molecule `COC[C@H]1CCCN1NC(=O)Nc1cccc2c1C(=O)c1c-2n[nH]c1-c1ccc(C(=O)N2CCNCC2)s1` returned a melting point above 300 °C.
For `COc1cn(-c2ccc(N3CCOCC3)cc2F)nc(-c2ccnn2-c2ccccc2)c1=O`, the melting point lay within 226 to 228 °C.
Consider `CC(C)(O)c1cnn2c(-c3ccc(F)c(-c4ccccc4C#N)c3)cnc2n1`, for which the melting point was found to be 187 °C.
`COc1ccc2c(c1)CCCC2(N)CO` (stereo unspecified) showed a melting point of 89 to 95.6 °C.
Regarding `COC(=O)C(I)C(O)c1ccccc1` (stereo unspecified), the melting point came to 56 °C.
`COc1ccc(S(=O)(=O)N2c3cc(F)ccc3-c3ccc(F)cc3C2C)c(OC)c1` (stereo unspecified) yielded a melting point of 112 to 115 °C.
As for `Cn1cncc1C(O)c1ccc2c(c1)c(-c1cccc(Cl)c1)cc(=O)n2C` (stereo unspecified), the melting point is 167 °C.
The molecule `Cc1ccc(C)n1-c1ccc2ccc3c([nH]c(=O)c(=O)n3CC(=O)NCc3ccccc3)c2c1` displayed a melting point above 290 °C.
`CCOC(=O)C(Cc1ccc(OC)c(OC)c1)NC(=O)c1ccc(OC(C)C)cc1` (stereo unspecified) displayed a melting point of 126 to 128 °C.
The result for `CCC(C)C(NC(=O)OCc1ccccc1)C(=O)NC(C(=O)Nc1n[nH]c(=S)s1)C(C)C` (stereo unspecified) reads 197 to 198 °C.
`O=C(O)CCC(=O)Oc1c(Cc2ccccc2)ccc2ccccc12` had a melting point of 140 °C.
Molecule `COP(=O)(OC)C(O)[C@H](CC1CCCCC1)NC(=O)[C@H](CC(C)C)NC(=O)OCc1ccccc1` (stereo partly specified) had a melting point of 151 °C.
On to `COc1ccccc1Oc1c(Cl)nc(-c2cccc(OCc3ccccc3)c2)nc1NS(=O)(=O)c1ccc(C)cn1`, for which the melting point lay within 176 to 180 °C.
For `O=C(O)c1cc(OCc2ccsc2)c(-c2ccccc2)c([N+](=O)[O-])c1`, the melting point was 184 to 186 °C.
In turn, `COC(=O)[C@H]1O[C@@H](n2cnc3c(Cl)ncnc32)[C@H](OC(C)=O)[C@@H]1N=[N+]=[N-]` yielded a melting point of 94 to 96 °C.
Molecule `Cc1ccc(F)cc1C(=O)N1Cc2cccnc2Nc2ccccc21` gave a melting point of 138 to 140 °C.
In turn, `CC(C)(CC(O)(Cn1cc(Br)c(=O)c2sccc21)C(F)(F)F)c1cccc2c1OCO2` (stereo unspecified) displayed a melting point of 197 to 198 °C.
Turning to `O=C1NC2CCC1C(O)C2` (stereo unspecified), the melting point lay within 115 to 120 °C.
`Cn1c2ccccc2c(=O)c2cscc21` registered a melting point of 188 to 190 °C.
Turning to `CCCCNC(=O)N(Cc1ccccn1)C1CCN(c2ncnc3cc(OC)c(OC)cc23)CC1`, the melting point was 162 to 164 °C.
`CC1=NC(C)(C)N(O)C1(C)C` had a melting point of 127 to 128 °C.
`Clc1ccc2nc(Cl)c(I)n2c1` had a melting point of 234 to 235 °C.
The molecule `CC1CCC(=NN)c2ncc(C(=O)NN)c(=O)n21` (stereo unspecified) gave a melting point of 219 to 220 °C.
In turn, `CC(C)=CC(C#N)NC(=O)c1cc(C)nn1C` (stereo unspecified) showed a melting point of 92.5 to 94 °C.
The result for `CCC(=O)C(Oc1cc(C#N)cc(C#N)c1)C(=O)OC` (stereo unspecified) reads 93 to 95 °C; that for `COc1cc(OC)c2c(=O)[nH]c(-c3cc(C)c(OC)c(C)c3)cc2n1`, 262 to 263 °C; that for `O=C(O)C1(C(=O)Nc2cc(Cl)cc(Cl)c2)CCC1`, 159 to 160 °C.
The result for `Cc1cc(F)ccc1C(=O)CCCN1CCC(O)(c2cccc(C(F)(F)F)c2)CC1` reads 63.5 °C.
